In US20260022142A1, “MACROCYCLIC IMMUNOMODULATORS” (Bristol-Myers Squibb Company, priority 2022, published 2026):
Numbered stars: 1 amine (or outer) side, 2 acyl side, 3 side chain; on linkers, the order of the positions; unused ones are H or OH. Bridge positions count the residues as written; N and C are the ends. Square brackets hold non-standard residues; d marks the D form. Peptide text beside a SMILES is read from it. * marks the point of attachment. ξ: configuration not given here. Phe(4-CH2CH2COOH) = N[C@@H](Cc1ccc(CCC(=O)O)cc1)C(=O)O; Phe(3-CF3) = N[C@@H](Cc1cccc(C(F)(F)F)c1)C(=O)O; Phe(4-COOH) = N[C@@H](Cc1ccc(C(=O)O)cc1)C(=O)O; Bip = N[C@@H](Cc1ccc(-c2ccccc2)cc1)C(=O)O; NH(CH2)16COOH = O=C(O)CCCCCCCCCCCCCCCCN*; NH(CH2)14COOH = O=C(O)CCCCCCCCCCCCCCN*; Phe(3-Me) = Cc1cccc(C[C@H](N)C(=O)O)c1; γGlu = O=C(O)[C@H](CCC(=O)[*:2])N[*:1]; NH(CH2)12COOH = O=C(O)CCCCCCCCCCCCN*; Val(3-OH) = CC(C)(O)[C@H](N)C(=O)O; Cha = N[C@@H](CC1CCCCC1)C(=O)O; Thr(3ξ) = CC(O)[C@H](N)C(=O)O; Carboxymethyl = O=C(O)C*; Nle = CCCC[C@H](N)C(=O)O; Orn = NCCC[C@H](N)C(=O)O; Dab = NCC[C@H](N)C(=O)O; AEEA = NCCOCCOCC(=O)O; CF3 = FC(F)(F)*

Target: T1, PD-1/PD-L1 interaction (PE-labeled human PD-L1-Ig binding to Jurkat cell line over-expressing human PD-1) (Homo sapiens, UniProt Q15116)
T1 construct: expressed in transfected cells; host or cells: Jurkat
T1 sequence (Q15116 25-288): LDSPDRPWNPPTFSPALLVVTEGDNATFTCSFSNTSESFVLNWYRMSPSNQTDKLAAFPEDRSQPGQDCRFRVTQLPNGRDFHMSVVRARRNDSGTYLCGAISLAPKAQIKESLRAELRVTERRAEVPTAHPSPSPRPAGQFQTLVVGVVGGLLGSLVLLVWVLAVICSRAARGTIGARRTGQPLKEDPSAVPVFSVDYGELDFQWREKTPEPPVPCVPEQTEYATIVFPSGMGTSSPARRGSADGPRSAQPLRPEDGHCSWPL
Assay: Jurkat-PD-1 Cell Binding High-Content Screening Assay (CBA)
Format: cell-based
Conditions: Jurkat cell line over-expressing human PD-1; PE-labeled PD-L1-Ig 20 nM final; read-out: Jurkat hPD1-PDL1 IC50
In short: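 Read-out is high-content imaging of cell-bound phycoerythrin-tagged PD-L1-Ig on fixed, Hoechst-counterstained Jurkat cells that over-express human PD-1. Compound exposure lasts 2 h at 37° C before the labeled ligand (20 nM final) is added for a further hour.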

IC50 [nM] | SMILES
52.7 | CC(=O)NCCCC[C@@H]1NC(=O)[C@H](C(C)(C)O)NC(=O)[C@H](CC2CCCCC2)NC(=O)[C@H](CCN)NC(=O)[C@@H](CC(C)C)NC(=O)[C@H](CCCN)NC(=O)[C@H](Cc2ccc(C(=O)O)cc2)NC(=O)[C@H](Cc2ccc(-c3ccccc3)cc2)NC(=O)[C@H](Cc2ccc(C(=O)O)cc2)NC(=O)[C@H](Cc2cccc(C)c2)NC(=O)[C@H](CC(=O)O)NC(=O)[C@H](Cc2ccc(OC(F)(F)F)cc2)NC(=O)[C@H](Cc2ccc(OCC(=O)O)cc2)NC(=O)CSC[C@@H](C(=O)N[C@@H](CCN)C(=O)NCCOCCOCC(=O)NCCCCCCCCCCCCC(=O)O)NC1=O [Compound 3859] ({CH2CO}-Y(Carboxymethyl)Y(CF3)D[Phe(3-Me)][Phe(4-COOH)][Bip][Phe(4-COOH)][Orn][dL][Dab][Cha][Val(3-OH)]K(Ac)C[Dab][AEEA]-{NH(CH2)12COOH}; thioether N-14)
348 | CC(C)C[C@H]1NC(=O)[C@H](Cc2cnc[nH]2)NC(=O)[C@H](Cc2ccc(OCC(=O)O)cc2)NC(=O)[C@H](Cc2ccc(-c3ccccc3)cc2)NC(=O)[C@H](Cc2ccc(C(=O)O)cc2)NC(=O)[C@H](Cc2cccc(C(F)(F)F)c2)NC(=O)[C@H](CC(=O)O)NC(=O)[C@H](Cc2ccc(OCC(=O)O)cc2)NC(=O)[C@H](C(C)O)NC(=O)CSC[C@@H](C(=O)N[C@@H](CCN)C(=O)NCCCCCCCCCCCCCCC(=O)O)NC(=O)[C@H](C(C)O)NC(=O)[C@H](C(C)(C)O)NC(=O)[C@H](CC2CCCCC2)NC(=O)[C@H](CCN)NC1=O (stereo partly drawn) [Compound 3861] ({CH2CO}-[Thr(3ξ)]Y(Carboxymethyl)D[Phe(3-CF3)][Phe(4-COOH)][Bip]Y(Carboxymethyl)H[dL][Dab][Cha][Val(3-OH)][Thr(3ξ)]C[Dab]-{NH(CH2)14COOH}; thioether N-14)
368 | CC(C)C[C@H]1NC(=O)[C@H](Cc2cnc[nH]2)NC(=O)[C@H](Cc2ccc(OCC(=O)O)cc2)NC(=O)[C@H](Cc2ccc(-c3ccccc3)cc2)NC(=O)[C@H](Cc2ccc(C(=O)O)cc2)NC(=O)[C@H](Cc2cccc(C(F)(F)F)c2)NC(=O)[C@H](CC(=O)O)NC(=O)[C@H](Cc2ccc(OCC(=O)O)cc2)NC(=O)[C@H](C)NC(=O)CSC[C@@H](C(=O)N[C@@H](CCN)C(=O)NCCCCCCCCCCCCCCC(=O)O)NC(=O)[C@H](C(C)O)NC(=O)[C@H](C(C)(C)O)NC(=O)[C@H](CC2CCCCC2)NC(=O)[C@H](CCN)NC1=O (stereo partly drawn) [Compound 3862] ({CH2CO}-AY(Carboxymethyl)D[Phe(3-CF3)][Phe(4-COOH)][Bip]Y(Carboxymethyl)H[dL][Dab][Cha][Val(3-OH)][Thr(3ξ)]C[Dab]-{NH(CH2)14COOH}; thioether N-14)
430 | CCCC[C@@H]1NC(=O)CSC[C@@H](C(=O)N[C@@H](CCN)C(=O)NCCCCCCCCCCCCCCC(=O)O)NC(=O)[C@H](C(C)O)NC(=O)[C@H](C(C)(C)O)NC(=O)[C@H](CC2CCCCC2)NC(=O)[C@H](CCN)NC(=O)[C@@H](CC(C)C)NC(=O)[C@H](Cc2cnc[nH]2)NC(=O)[C@H](Cc2ccc(OCC(=O)O)cc2)NC(=O)[C@H](Cc2ccc(-c3ccccc3)cc2)NC(=O)[C@H](Cc2ccc(C(=O)O)cc2)NC(=O)[C@H](Cc2cccc(C(F)(F)F)c2)NC(=O)[C@H](CC(=O)O)NC(=O)[C@H](Cc2ccc(OCC(=O)O)cc2)NC1=O (stereo partly drawn) [Compound 3863] ({CH2CO}-[Nle]Y(Carboxymethyl)D[Phe(3-CF3)][Phe(4-COOH)][Bip]Y(Carboxymethyl)H[dL][Dab][Cha][Val(3-OH)][Thr(3ξ)]C[Dab]-{NH(CH2)14COOH}; thioether N-14)
119 | CC(=O)NCCCC[C@@H]1NC(=O)[C@H](C(C)(C)O)NC(=O)[C@H](CC2CCCCC2)NC(=O)[C@H](CCN)NC(=O)[C@@H](CC(C)C)NC(=O)[C@H](CCCN)NC(=O)[C@H](Cc2ccc(C(=O)O)cc2)NC(=O)[C@H](Cc2ccc(-c3ccccc3)cc2)NC(=O)[C@H](Cc2ccc(C(=O)O)cc2)NC(=O)[C@H](Cc2cccc(C)c2)NC(=O)[C@H](CC(=O)O)NC(=O)[C@H](Cc2ccc(OCC(=O)O)cc2)NC(=O)[C@H](Cc2ccc(OCC(=O)O)cc2)NC(=O)CSC[C@@H](C(=O)N[C@@H](CCN)C(=O)NCCCCCCCCCCCCCCC(=O)O)NC1=O [Compound 3865] ({CH2CO}-Y(Carboxymethyl)Y(Carboxymethyl)D[Phe(3-Me)][Phe(4-COOH)][Bip][Phe(4-COOH)][Orn][dL][Dab][Cha][Val(3-OH)]K(Ac)C[Dab]-{NH(CH2)14COOH}; thioether N-14)
676 | CC(C)C[C@H]1NC(=O)[C@H](CCCN)NC(=O)[C@H](Cc2ccc(OCC(=O)O)cc2)NC(=O)[C@H](Cc2ccc(-c3ccccc3)cc2)NC(=O)[C@H](Cc2ccc(CCC(=O)O)cc2)NC(=O)[C@H](Cc2cccc(C(F)(F)F)c2)NC(=O)[C@H](CC(=O)O)NC(=O)[C@H](Cc2ccc(OC(F)(F)F)cc2)NC(=O)[C@H](C)NC(=O)CSC[C@@H](C(=O)N[C@@H](CCN)C(=O)NCCCCCCCCCCCCCCC(=O)O)NC(=O)[C@H](CCC(=O)O)NC(=O)[C@H](C(C)C)NC(=O)[C@H](CC2CCCCC2)NC(=O)[C@H](CCN)NC1=O [Compound 3866] ({CH2CO}-AY(CF3)D[Phe(3-CF3)][Phe(4-CH2CH2COOH)][Bip]Y(Carboxymethyl)[Orn][dL][Dab][Cha]VEC[Dab]-{NH(CH2)14COOH}; thioether N-14)
48.1 | CC(C)C[C@H]1NC(=O)[C@H](Cc2cnc[nH]2)NC(=O)[C@H](Cc2ccc(C(=O)O)cc2)NC(=O)[C@H](Cc2ccc(-c3ccccc3)cc2)NC(=O)[C@H](Cc2ccc(C(=O)O)cc2)NC(=O)[C@H](Cc2cccc(C(F)(F)F)c2)NC(=O)[C@H](CC(=O)O)NC(=O)[C@H](Cc2ccc(C(=O)O)cc2)NC(=O)[C@H](C(C)O)NC(=O)CSC[C@@H](C(=O)N[C@@H](CCN)C(=O)NCCOCCOCC(=O)NCCCCCCCCCCCCC(=O)O)NC(=O)[C@H](CC(=O)O)NC(=O)[C@H](C(C)C)NC(=O)[C@H](CC2CCCCC2)NC(=O)[C@H](CCN)NC1=O (stereo partly drawn) [Compound 3867] ({CH2CO}-[Thr(3ξ)][Phe(4-COOH)]D[Phe(3-CF3)][Phe(4-COOH)][Bip][Phe(4-COOH)]H[dL][Dab][Cha]VDC[Dab][AEEA]-{NH(CH2)12COOH}; thioether N-14)
156 | CC(C)C[C@H]1NC(=O)[C@H](CCCN)NC(=O)[C@H](Cc2ccc(OCC(=O)O)cc2)NC(=O)[C@H](Cc2ccc(-c3ccccc3)cc2)NC(=O)[C@H](Cc2ccc(OCC(=O)O)cc2)NC(=O)[C@H](Cc2cccc(C(F)(F)F)c2)NC(=O)[C@H](CC(=O)O)NC(=O)[C@H](Cc2ccc(OCC(=O)O)cc2)NC(=O)[C@H](Cc2c[nH]cn2)NC(=O)CSC[C@@H](C(=O)N[C@@H](CCN)C(=O)NCCCCCCCCCCCCCCC(=O)O)NC(=O)[C@H](CCC(=O)O)NC(=O)[C@H](C(C)(C)O)NC(=O)[C@H](CC2CCCCC2)NC(=O)[C@H](CCN)NC1=O [Compound 3868] ({CH2CO}-HY(Carboxymethyl)D[Phe(3-CF3)]Y(Carboxymethyl)[Bip]Y(Carboxymethyl)[Orn][dL][Dab][Cha][Val(3-OH)]EC[Dab]-{NH(CH2)14COOH}; thioether N-14)
71.1 | Cc1cccc(C[C@@H]2NC(=O)[C@H](CC(=O)O)NC(=O)[C@H](Cc3ccc(OCC(=O)O)cc3)NC(=O)[C@H](C)NC(=O)CSC[C@@H](C(=O)N[C@@H](CCN)C(=O)NCCOCCOCC(=O)NCCOCCOCC(=O)NCCOCCOCC(=O)NCCOCCOCC(=O)NCCCCCCCCCCCCCCC(=O)O)NC(=O)[C@H](CO)NC(=O)[C@H](C(C)(C)O)NC(=O)[C@H](CC3CCCCC3)NC(=O)[C@H](CCN)NC(=O)[C@@H](CC(C)C)NC(=O)[C@H](CCCN)NC(=O)[C@H](Cc3ccc(OCC(=O)O)cc3)NC(=O)[C@H](Cc3ccc(-c4ccccc4)cc3)NC(=O)[C@H](Cc3ccc(OCC(=O)O)cc3)NC2=O)c1 [Compound 3869] ({CH2CO}-AY(Carboxymethyl)D[Phe(3-Me)]Y(Carboxymethyl)[Bip]Y(Carboxymethyl)[Orn][dL][Dab][Cha][Val(3-OH)]SC[Dab][AEEA][AEEA][AEEA][AEEA]-{NH(CH2)14COOH}; thioether N-14)
28 | Cc1cccc(C[C@@H]2NC(=O)[C@H](CC(=O)O)NC(=O)[C@H](Cc3ccc(OCC(=O)O)cc3)NC(=O)[C@H](C)NC(=O)CSC[C@@H](C(=O)N[C@@H](CCN)C(=O)NCCOCCOCC(=O)NCCOCCOCC(=O)NCCOCCOCC(=O)NCCOCCOCC(=O)NCCCCCCCCCCCCCCC(=O)O)NC(=O)[C@H](Cc3cnc[nH]3)NC(=O)[C@H](C(C)(C)O)NC(=O)[C@H](CC3CCCCC3)NC(=O)[C@H](CCN)NC(=O)[C@@H](CC(C)C)NC(=O)[C@H](CCCN)NC(=O)[C@H](Cc3ccc(OCC(=O)O)cc3)NC(=O)[C@H](Cc3ccc(-c4ccccc4)cc3)NC(=O)[C@H](Cc3ccc(OCC(=O)O)cc3)NC2=O)c1 [Compound 3870] ({CH2CO}-AY(Carboxymethyl)D[Phe(3-Me)]Y(Carboxymethyl)[Bip]Y(Carboxymethyl)[Orn][dL][Dab][Cha][Val(3-OH)]HC[Dab][AEEA][AEEA][AEEA][AEEA]-{NH(CH2)14COOH}; thioether N-14)
45.7 | Cc1cccc(C[C@@H]2NC(=O)[C@H](CC(=O)O)NC(=O)[C@H](Cc3ccc(OCC(=O)O)cc3)NC(=O)[C@H](C)NC(=O)CSC[C@@H](C(=O)N[C@@H](CCN)C(=O)NCCOCCOCC(=O)NCCOCCOCC(=O)N[C@@H](CCC(=O)N[C@@H](CCC(=O)NCCCCCCCCCCCCCCCCC(=O)O)C(=O)O)C(=O)O)NC(=O)[C@H](Cc3c[nH]cn3)NC(=O)[C@H](C(C)(C)O)NC(=O)[C@H](CC3CCCCC3)NC(=O)[C@H](CCN)NC(=O)[C@@H](CC(C)C)NC(=O)[C@H](CCCN)NC(=O)[C@H](Cc3ccc(OCC(=O)O)cc3)NC(=O)[C@H](Cc3ccc(-c4ccccc4)cc3)NC(=O)[C@H](Cc3ccc(OCC(=O)O)cc3)NC2=O)c1 [Compound 3871] ({CH2CO}-AY(Carboxymethyl)D[Phe(3-Me)]Y(Carboxymethyl)[Bip]Y(Carboxymethyl)[Orn][dL][Dab][Cha][Val(3-OH)]HC[Dab][AEEA][AEEA][γGlu][γGlu]-{NH(CH2)16COOH}; thioether N-14)
